Measurements: patent US20220348590A1, “CYCLOOXYGENASE-2 INHIBITORS AND USES THEREOF” (The Board Institute, Inc., priority 2019, published 2022)

Molecular target: T1, COX2 (Rattus norvegicus, UniProt P35355)
T1 construct: in-vitro autoradiography in rat brain slices; from tissue; host or cells: rat brain slices
T1 sequence (P35355 18-604): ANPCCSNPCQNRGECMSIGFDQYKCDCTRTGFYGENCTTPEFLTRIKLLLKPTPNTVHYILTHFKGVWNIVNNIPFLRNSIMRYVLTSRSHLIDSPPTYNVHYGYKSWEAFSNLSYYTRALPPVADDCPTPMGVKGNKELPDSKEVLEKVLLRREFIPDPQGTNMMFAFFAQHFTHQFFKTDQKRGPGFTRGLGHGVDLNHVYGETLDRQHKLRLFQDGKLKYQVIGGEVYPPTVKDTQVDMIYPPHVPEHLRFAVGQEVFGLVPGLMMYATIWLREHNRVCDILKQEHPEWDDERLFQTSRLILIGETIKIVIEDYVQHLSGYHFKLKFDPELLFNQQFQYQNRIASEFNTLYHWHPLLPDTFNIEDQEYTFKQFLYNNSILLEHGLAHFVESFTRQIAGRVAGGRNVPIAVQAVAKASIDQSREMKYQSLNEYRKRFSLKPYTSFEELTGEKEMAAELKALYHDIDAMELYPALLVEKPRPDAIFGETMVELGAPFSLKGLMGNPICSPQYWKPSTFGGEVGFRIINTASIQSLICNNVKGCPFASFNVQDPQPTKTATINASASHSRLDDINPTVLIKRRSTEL
Assay: in-vitro autoradiography in rat brain slices (self-block)
Type: binding
Source text: Three ligands have been evaluated with in-vitro autoradiography in rat brain slices. Radiolabeling was accomplished via methylation of either a sulfinate precursor ([^11C]Rofecoxib), hydroxyl precursor ([^11C]MC1) or thiol precursor ([^11C]98) using [^11C]-methyl iodide and offers chemical flexibility for radiolabeling of future candidates. […] This translated into a ˜2-fold increase in COX2 specific binding in a rat brain slice in-vitro autoradiography. […] These properties enable us to better understand the contribution of potency and free fraction to the ligand's specific binding.
Three newly synthesized COX2 ligands were successfully radiolabeled using this strategy and first evaluated by in-vitro autoradiography in rat brain slices using self-block experiments (FIG. 5). […] [^11C]36 was also evaluated for specific binding using self-block experiments in human post-mortem brain tissues (globus pallidus) from three Huntington's disease (HD) patients (FIG. 6). COX2 protein levels were quantified using immunostaining and defined as high, medium and low, respectively.

increase in COX2 specific binding (rat brain slice in-vitro autoradiography, compared to MC1): ~2 fold
specific binding (rat brain slices in vitro autoradiography, self-block, compared to earlier tracers): increase in specific binding
Compound: CS(=O)(=O)c1ccc(-c2cncc(NCc3cccs3)n2)cc1 [Compound 98]
